Series [1] deals with T1, hSTING (stimulator of interferon genes) (Homo sapiens, UniProt Q86WV6).
T1 construct: gene STING1; hSTING cDNA with C-terminal Flag tag expressed in HEK293T cells
Nature of the series: IFN-β luciferase reporter in STING-transfected, digitonin-permeabilized HEK293T cells (vector control inactive). It is filed as cell-based. A general note: A reporter such as luciferase makes a cellular process visible.

Series [2] concerns the target T2, hSTING (stimulator of interferon genes) (Homo sapiens, UniProt Q86WV6, G230A/H232R).
T2 construct: gene STING1; C-terminal domain, residues 149-341, C-terminal 6×His tag (WT = R232)
The experiment in a line: isothermal titration calorimetry; DSF shift (+[…]°C). The series is classed as binding. In general terms: Isothermal titration calorimetry measures the heat released or taken up as one component is titrated into another.

Series [3] concerns the target T3, hSTING (stimulator of interferon genes) (Homo sapiens, UniProt Q86WV6, H232R).
T3 construct: gene STING1; C-terminal domain, residues 149-341, C-terminal 6×His tag (WT = R232)
Nature of the series: isothermal titration calorimetry; DSF shift (+[…]°C). It is filed as binding.

T1 sequence (Q86WV6 whole entry): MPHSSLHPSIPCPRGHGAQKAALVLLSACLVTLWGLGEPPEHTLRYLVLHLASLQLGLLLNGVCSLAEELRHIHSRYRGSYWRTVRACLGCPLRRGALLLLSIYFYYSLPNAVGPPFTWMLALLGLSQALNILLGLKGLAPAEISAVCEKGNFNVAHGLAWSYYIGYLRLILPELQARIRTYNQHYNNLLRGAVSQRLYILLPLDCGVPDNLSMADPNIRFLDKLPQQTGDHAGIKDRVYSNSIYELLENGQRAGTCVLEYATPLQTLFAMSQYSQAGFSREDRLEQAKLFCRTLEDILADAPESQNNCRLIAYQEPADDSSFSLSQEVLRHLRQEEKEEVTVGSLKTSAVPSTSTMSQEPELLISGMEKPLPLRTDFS
T2 sequence (Q86WV6 149-341 G230A/H232R): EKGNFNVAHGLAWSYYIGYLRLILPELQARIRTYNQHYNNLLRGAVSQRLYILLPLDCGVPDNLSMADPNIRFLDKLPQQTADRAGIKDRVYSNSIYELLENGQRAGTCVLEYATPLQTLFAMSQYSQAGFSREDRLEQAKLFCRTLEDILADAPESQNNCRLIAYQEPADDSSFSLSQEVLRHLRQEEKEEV
T3 sequence (Q86WV6 149-341 H232R): as the sequence (Q86WV6 149-341 G230A/H232R) above, with A82G counted along it

For the molecule `Nc1ncnc2c1ncn2[C@@H]1O[C@@H]2COP(=O)(O)O[C@H]3[C@@H](O)[C@H](n4cnc5c(N)ncnc54)O[C@@H]3COP(=O)(O)O[C@H]2[C@H]1O` [c-di-AMP], the “IFN-β luciferase reporter in STING-transfected, digitonin-permeabilized HEK293T” value in series [1] is on record as 16.1 fold (ratio to unstimulated).

As for `Nc1nc2c(ncn2[C@@H]2O[C@@H]3CO[P@](=O)(O)O[C@H]4[C@@H](O)[C@H](n5cnc6c(=O)[nH]c(N)nc65)O[C@@H]4CO[P@](=O)(O)O[C@H]3[C@H]2O)c(=O)[nH]1` [c-di-GMP], the equilibrium dissociation constant (Kd) – broadly, the free concentration of one partner at which half of the binding sites on the other are occupied at equilibrium, for simple one-to-one binding – in series [2] came out at 1900 nM; in series [3], 3.3 µM.

These data come from PMC3804601, “Single Nucleotide Polymorphisms of Human STING Can Affect Innate Immune Response to Cyclic Dinucleotides” (PLoS ONE, 2013).
